Read-outs that look alike come from different tables or passages of the source.
How the values were obtained:
hCA XII = molecular target: T1, hCA XII (Homo sapiens, UniProt O43570); assay: stopped-flow CO2 hydrase assay, hCA XII; type: biochemical; settings: for Selectivity index (SI) I/XII: hCA XII over hCA I; for Selectivity index (SI) II/XII: hCA XII over hCA II; for Ki: mean ± SEM of three assays
T1 construct: made in house
Description: An Applied Photophysics stopped-flow instrument has been used for assaying the CA-catalysed CO2 hydration activity, as reported earlier. […] All hCA isoforms were recombinant proteins, being obtained in-house as reported earlier.

c-Myc = assay: CD melting experiments, c-Myc GQ; type: binding; settings: for ΔΔT1/2 c-Myc: ΔT1/2 of compound minus ΔT1/2 of berberine, 1 molar equiv; for ΔT1/2 c-Myc: 1 molar equiv compound, T1/2 of DNA alone 70.0 °C
HeLa cells = assay: MTT assay, HeLa cells in normoxia; type: cell-based; settings: for IC50: Homo sapiens
Description: Combining the results on carbonic anhydrase inhibition and GQ thermal stabilisation, we selected the sulphonamides S-2,0, S-4,0, S-5,0 and the coumarins C-3,2, C-4,2, C-5,2 as the most promising MTDLs to be further investigated, since able to both efficiently suppress the activity of the hCAs IX/XII and stabilise GQ structures, in vitro. Moreover, given that crystals suitable for X-ray diffraction analyses had been successfully obtained for the human telomeric DNA GQ in complex with S-3,2, we also included such sulphonamide derivative in the subsequent studies. Thus, we assessed the cytotoxicity of the selected MTDLs on CA IX-positive HeLa cells, using the MTT assay.
HeLa cells were grown in Dulbecco’s Modified Eagle’s Medium supplemented with 10% FBS, 100 U/mL penicillin, and 100 μg/mL streptomycin, at 37 °C, in a 5% CO2/95% air atmosphere. Cells were sub-cultured at 90% confluence, in the split ratio 1:8, every 3–5 days. The MTDLs used in this study, as well as the CAIs S and C, were dissolved in DMSO at 40 mM (for the sulphonamides) or 10 mM (for the coumarins) concentration. As for berberine, a 50 mM stock solution in DMSO was prepared. Each tested compound was diluted in cell culture medium to the required concentration, immediately prior to use. As regards the experiments under hypoxic conditions, an 80 mM stock solution of CoCl2 was prepared in sterile distilled water and further diluted in medium to obtain the final desired concentrations.
For the MTT experiments in the presence of normal oxygen levels, HeLa cells were seeded in 96-well plates at a density of 15,000 cells per well (culture medium volume – 100 μL/well) and incubated at 37 °C, for 24 h. The medium was then removed, and HeLa were incubated, for 48 h, with fresh medium containing increasing concentrations of MTDLs, single-target-directed agents (berberine, S, and C) or vehicle (0.5% DMSO). The MTDL C-4,2 was also tested for 12 h. As for the co-treatments, cells were co-treated for 12 h with equimolar concentrations of berberine and C. As regards the MTT experiments under hypoxic conditions, HeLa cells were seeded in 96-well plates (8,000 cells per well) and incubated overnight, pre-treated with 50 μM cobalt (II) chloride hexahydrate (CoCl2) and then, for the following 12 h, either exposed to increasing concentrations of C-4,2 or vehicle (0.5% DMSO), or co-treated with equimolar concentrations of berberine and C. Each condition was assayed in triplicate. At the end of the treatments, 10 µL of MTT reagent were added to each well, at a final concentration of 0.5 mg/mL, and the plates were incubated at 37 °C for 4 h. To dissolve the resulting purple formazan crystals, 100 μL of the solubilisation solution were added into each well and the plates were allowed to stand overnight in the incubator (37 °C, 5% CO2/95% air). Finally, the optical density of the samples (at 570 nm) was measured on an ELx800 Absorbance Microplate Reader (BioTek Instruments, Inc., Winooski, VT, USA). The percentage (%) of cell survival for each condition was calculated by using the following equation: % cell survival=OD− OD0/ODCONTROL− OD0×100 where OD is the optical density of the sample, OD0 is the optical density of the background signal, and ODCONTROL is the optical density of the control sample (cells treated with vehicle, 0.5% DMSO). The concentration able to reduce by 50% the cellular viability (IC50) was calculated, for each investigated compound, using Prism 8.0.2 (GraphPad, San Diego, CA, USA) and plotting the percentage of cell survival versus the compound concentration (µM).

[1] = sulphonamides, inhibitor-enzyme incubation 15 min
[2] = 48 h, normoxia, read-out: IC50 (50% of cell viability reduction), MTT assay
[3] = coumarins, inhibitor-enzyme incubation 6 h

T1 sequence (O43570 25-354): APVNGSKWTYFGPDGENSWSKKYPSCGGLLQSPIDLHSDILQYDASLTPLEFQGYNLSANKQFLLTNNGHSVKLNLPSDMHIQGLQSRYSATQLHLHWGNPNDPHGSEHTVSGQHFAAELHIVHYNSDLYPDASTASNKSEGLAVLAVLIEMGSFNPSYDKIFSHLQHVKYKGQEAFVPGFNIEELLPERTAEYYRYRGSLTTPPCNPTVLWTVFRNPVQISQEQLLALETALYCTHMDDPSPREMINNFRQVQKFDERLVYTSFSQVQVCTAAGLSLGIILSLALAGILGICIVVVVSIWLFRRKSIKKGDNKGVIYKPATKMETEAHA

Selectivity index (SI) I/XII (hCA XII) | Selectivity index (SI) II/XII (hCA XII) | Ki (hCA XII; [1]) [µM] | IC50 (HeLa cells; [2]) [µM] | Ki (hCA XII; [3]) [µM] | Compound | ΔΔT1/2 c-Myc (c-Myc) [°C] | ΔΔT1/2 c-Myc (c-Myc; listed as S-2,0) [°C] | IC50 (50% of cell viability reduction), MTT assay (HeLa cells; 48 h, normoxia) | ΔT1/2 c-Myc (c-Myc) [°C] | ΔΔT1/2 c-Myc (c-Myc; listed as S-4,0) [°C] | reduction in the percentage of cell survival (HeLa cells; 48 h, concentration up to 200 µM) | cytotoxicity compared with co-exposure to equimolar berberine and C (HeLa cells; 12 h, normoxia) | IC50 (HeLa cells; 12 h treatment, normoxia, read-out: IC50, MTT assay) [µM] | ΔΔT1/2 c-Myc (c-Myc; listed as C-5,2) [°C]
79.5 | 8.1 | 0.0073 ± 0.0005 | > 200 |  | COc1ccc2cc3[n+](cc2c1OCCn1cc(-c2ccc(S(N)(=O)=O)cc2)nn1)CCc1cc2c(cc1-3)OCO2 [Compound 26, 10-Methoxy-9–(2-(4–(4-sulfamoylphenyl)-1H-1,2,3-triazol-1-yl)ethoxy)-5,6-dihydro-[1,3]dioxolo[4,5-g]isoquinolino[3,2-a]isoquinolin-7-ium hexafluorophosphate] | >13.0 | > 13.0 | fell outside the explored range of concentrations |  |  |  |  |  | 
25.8 | 2.0 | 0.0312 ± 0.0025 | > 200 |  | COc1ccc2cc3[n+](cc2c1OCCCn1cc(COc2ccc(S(N)(=O)=O)cc2)nn1)CCc1cc2c(cc1-3)OCO2 [Compound 29, 10-Methoxy-9–(3-(4-((4-sulfamoylphenoxy)methyl)-1H-1,2,3-triazol-1-yl)propoxy)-5,6-dihydro-[1,3]dioxolo[4,5-g]isoquinolino[3,2-a]isoquinolin-7-ium hexafluorophosphate] | 4.5 |  | fell outside the explored range of concentrations | 16.5 |  |  |  |  | 
31.3 | 0.9 | 0.0183 ± 0.001 | > 200 |  | COc1ccc2cc3[n+](cc2c1OCCCCCn1cc(-c2ccc(S(N)(=O)=O)cc2)nn1)CCc1cc2c(cc1-3)OCO2 [Compound 32, 10-Methoxy-9-((5–(4-(4-sulfamoylphenyl)-1H-1,2,3-triazol-1-yl)pentyl)oxy)-5,6-dihydro-[1,3]dioxolo[4,5-g]isoquinolino[3,2-a]isoquinolin-7-ium hexafluorophosphate] | 1.0 |  | fell outside the explored range of concentrations | 13.0 |  | around 40% |  |  | 
> 332.2 | > 332.2 |  | > 50 | 0.0301 ± 0.0015 | COc1ccc2cc3[n+](cc2c1OCCCn1cc(COc2ccc4ccc(=O)oc4c2)nn1)CCc1cc2c(cc1-3)OCO2 [Compound 34, 10-Methoxy-9–(3-(4-(((2-oxo-2H-chromen-7-yl)oxy)methyl)-1H-1,2,3-triazol-1-yl)propoxy)-5,6-dihydro-[1,3]dioxolo[4,5-g]isoquinolino[3,2-a]isoquinolin-7-ium hexafluorophosphate] | 6.0 |  | fell outside the explored range of concentrations | 18.0 |  |  |  |  | 

The next lines start with the compound.

Compound | Selectivity index (SI) I/XII (hCA XII) | Selectivity index (SI) II/XII (hCA XII) | Ki (hCA XII; [1]) [µM] | IC50 (HeLa cells; [2]) [µM] | Ki (hCA XII; [3]) [µM] | ΔΔT1/2 c-Myc (c-Myc) [°C] | ΔΔT1/2 c-Myc (c-Myc; listed as S-2,0) [°C] | IC50 (50% of cell viability reduction), MTT assay (HeLa cells; 48 h, normoxia) | ΔT1/2 c-Myc (c-Myc) [°C] | ΔΔT1/2 c-Myc (c-Myc; listed as S-4,0) [°C] | reduction in the percentage of cell survival (HeLa cells; 48 h, concentration up to 200 µM) | cytotoxicity compared with co-exposure to equimolar berberine and C (HeLa cells; 12 h, normoxia) | IC50 (HeLa cells; 12 h treatment, normoxia, read-out: IC50, MTT assay) [µM] | ΔΔT1/2 c-Myc (c-Myc; listed as C-5,2) [°C]
COc1ccc2cc3[n+](cc2c1OCCCCn1cc(-c2ccc(S(N)(=O)=O)cc2)nn1)CCc1cc2c(cc1-3)OCO2 [Compound 30, 10-Methoxy-9–(4–(4-(4-sulfamoylphenyl)-1H-1,2,3-triazol-1-yl)butoxy)-5,6-dihydro-[1,3]dioxolo[4,5-g]isoquinolino[3,2-a]isoquinolin-7-ium hexafluorophosphate] | 23.2 | 2.2 | 0.0255 ± 0.0014 | 35 |  | >13.0 |  |  |  | > 13.0 |  |  |  | 
COc1ccc2cc3[n+](cc2c1OCCCCn1cc(COc2ccc4ccc(=O)oc4c2)nn1)CCc1cc2c(cc1-3)OCO2 [Compound 37, 10-Methoxy-9–(4-(4-(((2-oxo-2H-chromen-7-yl)oxy)methyl)-1H-1,2,3-triazol-1-yl)butoxy)-5,6-dihydro-[1,3]dioxolo[4,5-g]isoquinolino[3,2-a]isoquinolin-7-ium hexafluorophosphate] | > 1190 | > 1190 |  | 40 | 0.0084 ± 0.0005 | 1.0 |  |  | 13.0 |  |  | greater | 46 | 
COc1ccc2cc3[n+](cc2c1OCCCCCn1cc(COc2ccc4ccc(=O)oc4c2)nn1)CCc1cc2c(cc1-3)OCO2 [Compound 39, 10-Methoxy-9-((5–(4-(((2-oxo-2H-chromen-7-yl)oxy)methyl)-1H-1,2,3-triazol-1-yl)pentyl)oxy)-5,6-dihydro-[1,3]dioxolo[4,5-g]isoquinolino[3,2-a]isoquinolin-7-ium hexafluorophosphate] | > 497.5 | > 497.5 |  | 37.5 | 0.0201 ± 0.0013 | >13.0 |  |  |  |  |  |  |  | > 13.0
